From US7989446B2, “4-amino 5-cyanopyrimidine derivatives” (Otsuka Pharmaceutical Co., Ltd., priority 2004, dated 2011)

How the values were obtained:
[1] = target: T1, adenosine A2a receptor (Human) (Homo sapiens, UniProt P29274); assay: c-AMP generating action in cell expressing adenosine A2a receptor; type: cell-based; details: HEK293 cell expressing human A2a; 100% = c-AMP caused by 1 μM CGS-21680; read-out: A2a Agonistic Action (EC50)
T1 construct: host or cells: HEK293
Procedure: (1) c-AMP Generating Action in Cell Expressing Adenosine A2a Receptor
The test was carried out as mentioned below with reference to the method disclosed in the reference (Klotz k. N. et al., Naunyn-Schmiedeberg's Arch. Pharmacol., (1998) 357, 1-9; Shryock J. C. et al., Molecular Pharmacology, (1998) 53, 886-893).
As to the cell, HEK293 cell expressing adenosine A2a receptor (Human) (PerkinElmer Life Sciences, Code No. RBHA2AC) was used.
As to the culture medium, Dulbecco's modified Eagles medium (DMEM) including 10% FBS (Fetal bovine serum) and 1 mM of sodium pyruvate was used.
The cell was placed on 96 well plate (1×10^5/well), and cultured overnight. After removing off the supernatant, to each well, 0.1 ml of DMEM (without FBS) containing 20 mM HEPES, 0.1 mM of IBMX (3-isobutyl-1-methylxanthine) and 2 unit/mL adenosine deaminase was added, and they were incubated at 37° C. for 30 minutes. To each well, 0.1 ml of the culture medium including the DMSO solution of the test compound in an appropriate concentration was added and they were incubated for additional 30 minutes. After removing off the supernatant, the cytolytic solution was added to quench the reaction. The amount of c-AMP in each well was measured by using the c-AMP enzyme immunoassay (EIA) system (Amersham Biosciences, Code No. RPN225).
The same assay was repeated using CGS-21680 (2-p-carboxyethyl)phenethylamino-5′-N-ethylcarboxamidoadenosine hydrochloride, (Sigma, code C141) as reference compound. The amount of resultant c-AMP in the medium, caused by 1 μM of reference compound, was defined to be 100%. A concentration of assayed compound in the medium, producing 50% c-AMP amounts, was calculated to be EC50 value.

[2] = test system: Intraocular Pressure in Rabbit; assay: Measuring test for intraocular pressure in rabbit; type: in vivo, Female New Zealand white rabbits; details: mean±standard error
Procedure: (3) Measuring Test for Intraocular Pressure in Rabbit
The test compounds were dissolved in 10 mM of phosphate buffer (pH 7.5) (hereinafter, referred to as “vehicle of ophthalmic preparation”), and they were instilled in a given concentration. In addition, the compounds insoluble in that concentration was used as a suspension. Female New Zealand white rabbits (KITAYAMA LABES Co., Ltd.) whose weights were 2.0-4.0 kg were used.
The measurement of the intraocular pressure was carried out using Pneumatonometer (Model 30 Classic, Mentor company) without anesthesia. In addition, before the measurement of the intraocular pressure, the surface anesthesia with 0.4% oxybuprocaine hydrochloride (“Benoxil” 0.4% ophthalmic solution, Santen Pharmaceutical Co., Ltd.) was carried out.
The animals whose intraocular pressure was stable before instillation were selected, and these animals were divided to every 4 animal in each one group, 50 μL of eye drops including each the test compound was administered to one-sided eye and vehicle was administered to contralateral eye as the control eye. The measurement of intraocular pressure was carried out before instillation and after 0.5, 1, 2, 3, 4 and 6 hours from instillation. The effect on the intraocular pressure was shown as the difference from pre-instillation (ΔIOP, mmHg, mean±standard error). The following Tables 14 and 15 show the results of Control Compounds A and B used as 1% suspensions which are the same as in the pharmacological test (1).
The animals were pretreated as mentioned above, and among them animals whose intraocular pressure was stable before instillation were selected, and these animals were divided to every 5 to 8 animal in each one group. Every two group was used for each of the test compounds. The test compound was administered unilaterally to the eye of the test group rabbit and the intraocular pressure was measured. The vehicle was administered unilaterally to the eye of the control group rabbit and the intraocular pressure was measured. As mentioned above, the measurement of intraocular pressure was carried out before instillation and after 0.5, 1, 2, 3, 4 and 6 hours from instillation, and the effect on the intraocular pressure was shown as the difference from pre-instillation (ΔIOP, mmHg, mean±standard error).

[3] = 0.03% ophthalmic solution, rabbit, instillation, 0.5 hr after instillation, difference from pre-instillation
[4] = 0.03% ophthalmic solution, rabbit, instillation, 1 hr after instillation, difference from pre-instillation
[5] = 0.03% ophthalmic solution, rabbit, instillation, 2 hr after instillation, difference from pre-instillation
[6] = 0.03% ophthalmic solution, rabbit, instillation, 3 hr after instillation, difference from pre-instillation
[7] = 0.03% ophthalmic solution, rabbit, instillation, 4 hr after instillation, difference from pre-instillation
[8] = 0.03% ophthalmic solution, rabbit, instillation, 6 hr after instillation, difference from pre-instillation

T1 sequence (P29274 whole entry): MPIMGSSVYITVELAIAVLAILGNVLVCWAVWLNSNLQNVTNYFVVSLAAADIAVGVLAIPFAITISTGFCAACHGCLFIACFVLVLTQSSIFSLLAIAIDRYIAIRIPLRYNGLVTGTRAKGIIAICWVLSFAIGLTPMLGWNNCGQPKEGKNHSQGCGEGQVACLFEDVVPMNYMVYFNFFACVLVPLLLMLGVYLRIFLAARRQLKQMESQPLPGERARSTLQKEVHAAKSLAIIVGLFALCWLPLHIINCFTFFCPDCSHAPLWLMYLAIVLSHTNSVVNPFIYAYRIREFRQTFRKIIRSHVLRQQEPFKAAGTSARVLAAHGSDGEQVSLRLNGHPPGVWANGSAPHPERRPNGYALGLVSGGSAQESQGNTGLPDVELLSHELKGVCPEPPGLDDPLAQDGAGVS

EC50 [1] [nM]	SMILES	ΔIOP (mmHg) ([2]; 0.01% ophthalmic solution, test group, 0.5 hr)	ΔIOP (mmHg) ([2]; 0.01% ophthalmic solution, test group, 1 hr)	ΔIOP (mmHg) ([2]; 0.01% ophthalmic solution, test group, 2 hr)	ΔIOP (mmHg) ([2]; 0.01% ophthalmic solution, test group, 3 hr)	ΔIOP (mmHg) ([2]; 0.01% ophthalmic solution, test group, 4 hr)	ΔIOP (mmHg) ([2]; 0.01% ophthalmic solution, test group, 6 hr)	ΔIOP (mmHg) [2, 3] [mmHg]	ΔIOP (mmHg) [2, 4] [mmHg]	ΔIOP (mmHg) [2, 5] [mmHg]	ΔIOP (mmHg) [2, 6] [mmHg]	ΔIOP (mmHg) [2, 7] [mmHg]	ΔIOP (mmHg) [2, 8] [mmHg]
7	CC(=O)Nc1ccc(-c2nc(SCc3cccc(CCC(=O)N4CCC(N5CCCCC5)CC4)n3)nc(N)c2C#N)cc1.Cl [Example 69, N-(4-{6-amino-2-[6-(3-[1,4′]bipiperidinyl-1′-yl-3-oxopropyl)pyridin-2-ylmethylsulfanyl]-5-cyanopyrimidin-4-yl}phenyl)acetamide hydrochloride]	−1.5 ± 1.0	−4.9 ± 0.7	−3.6 ± 0.4	−3.8 ± 0.7	−2.6 ± 1.0	0.5 ± 0.9						
13.6	CCN1CCN(CC2CN(C(=O)CCc3cccc(CSc4nc(N)c(C#N)c(-c5ccc(NC(C)=O)cc5)n4)n3)CCO2)CC1.Cl (stereo not shown) [Example 72, N-{4-[6-amino-5-cyano-2-(6-{3-[2-(4-ethyl-piperazin-1-ylmethyl)morpholin-4-yl]-3-oxopropyl}pyridin-2-ylmethylsulfanyl)pyrimidin-4-yl]phenyl}acetamide hydrochloride]							−1.9 ± 0.6	−5.3 ± 0.6	−4.7 ± 0.6	−5.0 ± 0.7	−4.0 ± 1.0	−1.9 ± 0.9
6	CC(=O)Nc1ccc(-c2nc(SCc3cccc(CCC(=O)N4CCN(CCN5CCOCC5)CC4)n3)nc(N)c2C#N)cc1.Cl [Example 78, N-{4-[6-amino-5-cyano-2-(6-{3-[4-(2-morpholin-4-ylethyl)piperazin-1-yl]-3-oxopropyl}pyridin-2-ylmethylsulfanyl)pyrimidin-4-yl]phenyl}acetamide hydrochloride]							0.6 ± 0.5	−3.3 ± 0.4	−4.4 ± 0.6	−4.3 ± 0.9	−5.4 ± 0.7	−3.2 ± 0.9
2.4	CC(=O)Nc1ccc(-c2nc(SCc3cccc(CCC(=O)N4CCCN(C)CC4)n3)nc(N)c2C#N)cc1.Cl [Example 80, N-[4-(6-amino-5-cyano-2-{6-[3-(4-methyl-[1,4]diazepan-1-yl)-3-oxopropyl]pyridin-2-ylmethyl-sulfanyl}pyrimidin-4-yl)phenyl]acetamide hydrochloride]							−0.9 ± 1.3	−5.0 ± 1.0	−5.9 ± 0.7	−4.9 ± 0.5	−5.0 ± 0.8	−1.8 ± 0.8
